We go through 4 molecules from patent publication US5948886A, “Acylated enol derivatives of α-ketoesters and α-ketoamides” (Hoechst Marion Roussel, Inc., priority 1997, dated 1999).

SMILES strings stand for the structures. pKi: −log10 of the molar value.

Experiment [1] concerns the target T1, Elastase (Homo sapiens, UniProt P08246).
T1 construct: Elastase is isolated from human sputum; from tissue; host or cells: human sputum
T1 sequence (P08246 30-267): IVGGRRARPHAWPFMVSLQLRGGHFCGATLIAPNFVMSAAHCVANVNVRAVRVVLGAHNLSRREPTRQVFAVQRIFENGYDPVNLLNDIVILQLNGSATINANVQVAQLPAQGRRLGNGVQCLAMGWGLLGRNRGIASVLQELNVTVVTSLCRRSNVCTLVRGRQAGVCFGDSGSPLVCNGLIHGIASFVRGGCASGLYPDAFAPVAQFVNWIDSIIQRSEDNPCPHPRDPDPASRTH
As to the kind of experiment: In vitro assay of elastase with chromogenic substrate N-MeOSuc-Ala-Ala-Pro-Val-p-nitroanilide, no esterase. It counts as biochemical. As to conditions: for rate of hydrolysis of the substrate (no inhibitor or prodrug added = 100%): without esterase; for pKi: parent (liberated) drug itself, read-out: Ki measured / determined independently. On the procedure:
(§1) Elastase was assayed in vitro using the chromogenic substrate N-MeOSuc-Ala-Ala-Pro-Val-p-nitroanilide ([S]=0.20 mM; Km=0.16 mM), available commercially. The assay techniques are similar to those described by Mehdi, et al., Biochemical and Biophysical Research Communications, 166, 595 (1990). The assay mixture consists of partially purified elastase and substrate (0.2 mM) in 0.1 M HEPES (pH 7.5), 0.5 M NaCl, 10% DMSO and 0.1% Brij 35. The reaction (1 or 2 mL, in a plastic cuvette) is maintained at 37° C. and the hydrolysis of the substrate is followed in the presence of MDL 104,569 and 5 units/mL of porcine liver esterase (Sigma Chemical Co., cat. no. E-3128). Elastase is isolated from human sputum, although recently it has become commercially available. The rate of hydrolysis of the substrate with no inhibitor or prodrug added is assigned 100%. In the presence of 1 μM MDL 104,569, a rate of 81% was obtained; when esterase ([…], Sigma Chemical Co.) was also present, the rate decreased to 24%.
(§2) Elastase was assayed in vitro in the presence of MDL 105,565 using the techniques and procedures described in Example 18. With MDL 105,565, at a concentration of 10 nM, a rate of 99% was obtained; when esterase was added, this rate was 76%. At a concentration of 45 nM, the rates were 94% (without esterase) and 37% (with esterase).

For experiment [2], the target named is T1, Elastase. As to the kind of experiment: In vitro assay of elastase in the presence of the prodrug and porcine liver esterase. It counts as biochemical. On the procedure: as §1, §2

With `COC(=O)CCC(=O)N[C@@H](C)C(=O)N[C@@H](C)C(=O)N1CCC[C@H]1C(=O)NC(=C(OC(C)=O)C(=O)OC)C(C)C` (mixture of isomers) [MDL 104,569, L-Prolinamide, N-(4-methoxy-1,4-dioxobutyl)-L-alanyl-L-alanyl-N-[2-(acetyloxy)-3-methoxy-1-(1-methylethyl)-3-oxo-1-propenyl]-, (E)- and (Z)-mixture], the “rate of hydrolysis of the substrate (no inhibitor or prodrug added = 100%)” value on Elastase [1] (1 μM compound, substrate 0.2 mM, pH 7.5, 37° C.) worked out at 81%; at Elastase [2] (1 μM compound, esterase also present), 24%.

As for `COC(=O)/C(OC(C)=O)=C(\NC(=O)[C@@H]1CCCN1C(=O)[C@@H](NC(=O)c1ccc(C(=O)NS(=O)(=O)c2ccc(Cl)cc2)cc1)C(C)C)C(C)C` [MDL 105,565, L-Prolinamide, N-[4-[[[(4-chlorophenyl)sulfonyl]amino]carbonyl]benzoyl]-L-valyl-N-[2-(acetyloxy)-3-methoxy-1-(1-methylethyl)-3-oxo-1-propenyl]-, (E)], the “rate of hydrolysis of the substrate (no inhibitor or prodrug added = 100%)” value is on record as 99% on Elastase [1] (10 nM compound); 94% on Elastase [1] (45 nM compound); 76% at Elastase [2] (10 nM compound, esterase added); 37% on Elastase [2] (45 nM compound, with esterase).

Take `COC(=O)C(=O)C(NC(=O)C1CCCN1C(=O)C(NC(=O)c1ccc(C(=O)NS(=O)(=O)c2ccc(Cl)cc2)cc1)C(C)C)C(C)C` (stereo not drawn) [liberated drug, reference compound]: the pKi on Elastase [1] was 8.70; on Elastase [2] (drug liberated from MDL 105,565 by esterase in the assay, read-out: Ki of the liberated drug, calculated), 7.89.

Turning to `COC(=O)CCC(=O)NC(C)C(=O)NC(C)C(=O)N1CCCC1C(=O)NC(C(=O)C(=O)OC)C(C)C` (stereo not drawn) [parent drug, MeOSuc-Ala-Ala-Pro-Val-CO2 CH3, reference compound], the pKi at Elastase [1] is 6.70.
